Assays:
Format in all cases: cell-based, human
BT-549 = assay: NCI-60 screen at 10 μM: BT-549; settings: Breast Cancer BT-549; 10 μM single dose; 48 hrs
Method: (§1) NL-101 and CY-102 was sent to U.S. National Cancer Institute (NCI) for NCI 60-cell line screening using a single compound dose (10 μM).
(§2) The human tumor cell lines of the cancer screening panel were grown in RPMI 1640 medium containing 5% fetal bovine serum (5% FBS) and 2 mM L-glutamine. For a typical screening experiment, cells were inoculated into 96-well microtiter plates in 100 μL, at plating densities ranging from 5,000 to 40,000 cells/well depending on the doubling time of individual cell lines. After cell inoculation, the microtiter plates were incubated at 37° C., 5% CO2, 95% air, and 100% relative humidity for 24 h prior to addition of experimental compounds. […]
(§3) Following drug addition, the plates were incubated for an additional 48 hrs at 37° C., 5% CO2, 95% air, and 100% relative humidity. […] Bound stain was subsequently solubilized with 10 mM trizma base, and the absorbance was read on an automated plate reader at a wavelength of 515 nm. […]
(§4) Using the seven absorbance measurements [time zero, (Tz), control growth, (C), and test growth in the presence of drug at the 10 μM concentration levels (Ti)], percentage growth was calculated at each of the drug concentrations levels. Percentage growth inhibition was calculated as: [(Ti−Tz)/(C−Tz)]×100 for which Ti>/=Tz or [(Ti−Tz)/Tz]×100 for which Ti<Tz.

HT29 = assay: NCI-60 screen at 10 μM: HT29; settings: Colon Cancer HT29; 10 μM single dose; 48 hrs
Method: as §1, §2, §3, §4

MALME-3M = assay: NCI-60 screen at 10 μM: MALME-3M; settings: Melanoma MALME-3M; 10 μM single dose; 48 hrs
Method: as §1, §2, §3, §4

LOX IMVI = assay: NCI-60 screen at 10 μM: LOX IMVI; settings: Melanoma LOX IMVI; 10 μM single dose; 48 hrs
Method: as §1, §2, §3, §4

NCI-H460 = assay: NCI-60 screen at 10 μM: NCI-H460; settings: NSCLC NCI-H460; 10 μM single dose; 48 hrs
Method: as §1, §2, §3, §4

786-0 = assay: NCI-60 screen at 10 μM: 786-0; settings: Renal Cancer 786-0; 10 μM single dose; 48 hrs
Method: as §1, §2, §3, §4

U251 = assay: NCI-60 screen at 10 μM: U251; settings: CNS Cancer (Glioma) U251; 10 μM single dose; 48 hrs
Method: as §1, §2, §3, §4

KM12 = assay: NCI-60 screen at 10 μM: KM12; settings: Colon Cancer KM12; 10 μM single dose; 48 hrs
Method: as §1, §2, §3, §4

RXF 393 = assay: NCI-60 screen at 10 μM: RXF 393; settings: Renal Cancer RXF 393; 10 μM single dose; 48 hrs
Method: as §1, §2, §3, §4

SR = assay: NCI-60 screen at 10 μM: SR; settings: Leukemia SR; 10 μM single dose; 48 hrs
Method: as §1, §2, §3, §4

MDA-MB-435 = assay: NCI-60 screen at 10 μM: MDA-MB-435; settings: Melanoma MDA-MB-435; 10 μM single dose; 48 hrs
Method: as §1, §2, §3, §4

NCI-H226 = assay: NCI-60 screen at 10 μM: NCI-H226; settings: NSCLC NCI-H226; 10 μM single dose; 48 hrs
Method: as §1, §2, §3, §4

HCT-116 = assay: NCI-60 screen at 10 μM: HCT-116; settings: Colon Cancer HCT-116; 10 μM single dose; 48 hrs
Method: as §1, §2, §3, §4

UACC-257 = assay: NCI-60 screen at 10 μM: UACC-257; settings: Melanoma UACC-257; 10 μM single dose; 48 hrs
Method: as §1, §2, §3, §4

IGROV1 = assay: NCI-60 screen at 10 μM: IGROV1; settings: Ovarian Cancer IGROV1; 10 μM single dose; 48 hrs
Method: as §1, §2, §3, §4

A549/ATCC = assay: NCI-60 screen at 10 μM: A549/ATCC; settings: NSCLC A549/ATCC; 10 μM single dose; 48 hrs
Method: as §1, §2, §3, §4

SK-OV-3 = assay: NCI-60 screen at 10 μM: SK-OV-3; settings: Ovarian Cancer SK-OV-3; 10 μM single dose; 48 hrs
Method: as §1, §2, §3, §4

SK-MEL-28 = assay: NCI-60 screen at 10 μM: SK-MEL-28; settings: Melanoma SK-MEL-28; 10 μM single dose; 48 hrs
Method: as §1, §2, §3, §4

MOLT-4 = assay: NCI-60 screen at 10 μM: MOLT-4; settings: Leukemia MOLT-4; 10 μM single dose; 48 hrs
Method: as §1, §2, §3, §4

SW-620 = assay: NCI-60 screen at 10 μM: SW-620; settings: Colon Cancer SW-620; 10 μM single dose; 48 hrs
Method: as §1, §2, §3, §4

HL-60(TB) = tested on: HL-60(TB)
HOP-92 = assay: NCI-60 screen at 10 μM: HOP-92; settings: NSCLC HOP-92; 10 μM single dose; 48 hrs
Method: as §1, §2, §3, §4

OVCAR-5 = assay: NCI-60 screen at 10 μM: OVCAR-5; settings: Ovarian Cancer OVCAR-5; 10 μM single dose; 48 hrs
Method: as §1, §2, §3, §4

HCC-2998 = assay: NCI-60 screen at 10 μM: HCC-2998; settings: Colon Cancer HCC-2998; 10 μM single dose; 48 hrs
Method: as §1, §2, §3, §4

| SMILES | Growth % (BT-549) | Growth % (HT29) | Growth % (MALME-3M) | Growth % (LOX IMVI) | Growth % (NCI-H460) | Growth % (786-0) | Growth % (U251) | Growth % (KM12) | Growth % (RXF 393) | Growth % (SR) | Growth % (MDA-MB-435) | Growth % (NCI-H226) | Growth % (HCT-116) | Growth % (UACC-257) | Growth % (IGROV1) | Growth % (A549/ATCC) | Growth % (SK-OV-3) | Growth % (SK-MEL-28) | Growth % (MOLT-4) | Growth % (SW-620) | other results |
| --- | --- | --- | --- | --- | --- | --- | --- | --- | --- | --- | --- | --- | --- | --- | --- | --- | --- | --- | --- | --- | --- |
| Cn1c(CCNCc2ccc(/C=C/C(=O)NO)cc2)nc2cc(N(CCCl)CCCl)ccc21 [CY-102] | −33.26% | −50.67% | −64.17% | −26.41% | 2.61% | −30.40% | −39.66% | −78.14% | −35.55% | 0.09% | −73.24% | −20.77% | −1.84% | −36.39% | −14.43% | −32.69% | −41.53% | −21.36% | 2.17% | 2.33% | Growth % (HL-60(TB)): −10.34%; Growth % (HOP-92): −35.89%; Growth % (OVCAR-5): −3.75%; Growth % (HCC-2998): −80.55% |
| Cn1c(CCCCCCC(=O)NO)nc2cc(N(CCCl)CCCl)ccc21 [NL-101] | 79.21% | 37.10% | 28.59% | −23.43% | 25.56% | 19.82% | 35.03% | 65.79% | 5.95% | 29.62% | 49.07% | 60.27% | 23.73% | 33.75% | 55.99% | 43.54% | 34.40% | 59.32% | 18.01% | 30.40% | Growth % (HL-60(TB)): 18.98%; Growth % (HOP-92): 22.07%; Growth % (OVCAR-5): 66.28%; Growth % (HCC-2998): 86.98% |

Reference: patent US10118901B2 (priority 2013, dated 2018)
